Experimental data as given in ChEMBL document CHEMBL1201862, “PubChem BioAssay data set” (2004).
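Briefly, cells in 96-well plates were exposed to five compound concentrations for 48 h, and endpoints were estimated by linear interpolation. The concentration for 50% growth inhibition is given as GI50.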 Active and inactive are the calls of the source. Cut-off read from the data, not from the text of the source: active = GI50 up to about 1.1 µM and inactive = higher.

Assays:
Assay in all cases: NCI-60 cell line screen, 48 h
RPMI-8226 = test system: RPMI-8226
CCRF-CEM = test system: CCRF-CEM
COLO 205 = test system: COLO 205
HCC 2998 = test system: HCC 2998
NCI-H460 = test system: NCI-H460
BT-549 = test system: BT-549
T47D = test system: T47D
A498 = test system: A498
KM12 = test system: KM12
SN12C = test system: SN12C
786-0 = test system: 786-0
NCI-H522 = test system: NCI-H522
A549 = test system: A549
DU-145 = test system: DU-145
UO-31 = test system: UO-31
HCT-116 = test system: HCT-116
HT-29 = test system: HT-29
Hs-578T = test system: Hs-578T
UACC-257 = test system: UACC-257
NCI-H23 = test system: NCI-H23
MDA-N = test system: MDA-N
MDA-MB-435 = test system: MDA-MB-435
SF-539 = test system: SF-539
MDA-MB-231 = test system: MDA-MB-231
SNB-75 = test system: SNB-75
LOX IMVI = test system: LOX IMVI
M14 = test system: M14
HL-60 = test system: HL-60
SK-MEL-2 = test system: SK-MEL-2
OVCAR-3 = test system: OVCAR-3
MOLT-4 = test system: MOLT-4
OVCAR-5 = test system: OVCAR-5
MCF7 = test system: MCF7
SNB-19 = test system: SNB-19
HCT-15 = test system: HCT-15
Malme-3M = test system: Malme-3M
SW-620 = test system: SW-620
HOP-62 = test system: HOP-62
PC-3 = test system: PC-3
SF-268 = test system: SF-268
NCI-H226 = test system: NCI-H226
EKVX = test system: EKVX
OVCAR-8 = test system: OVCAR-8
SK-MEL-28 = test system: SK-MEL-28
NCI/ADR-RES = test system: NCI/ADR-RES
K562 = test system: K562
ACHN = test system: ACHN
SR = test system: SR
SF-295 = test system: SF-295

With `CC(=O)Oc1ccccc1-c1cc2ccccc2oc1=O` as the compound, how does the GI50 (RPMI-8226) read?
The GI50 was > 100 µM (inactive).

What about the GI50 (CCRF-CEM) of the same compound?
Its GI50 is > 100 µM (inactive).

What about the GI50 (COLO 205) of the same compound?
The GI50 was > 100 µM (inactive).

And the GI50 (HCC 2998)?
Its GI50 is > 100 µM (inactive).

And the GI50 (NCI-H460)?
Its GI50 is > 100 µM (inactive).

What about the GI50 (BT-549) of the same compound?
Its GI50 is > 100 µM (inactive).

What about the GI50 (T47D) of the same compound?
The GI50 was 97.7 µM (inactive).

And the GI50 (A498)?
Its GI50 is > 100 µM (inactive).

What about the GI50 (KM12) of the same compound?
Its GI50 is > 100 µM (inactive).

And the GI50 (SN12C)?
Its GI50 is > 100 µM (inactive).

What about the GI50 (786-0) of the same compound?
The GI50 was > 100 µM (inactive).

And the GI50 (NCI-H522)?
The GI50 was 61.1 µM (inactive).

What about the GI50 (A549) of the same compound?
The GI50 was > 100 µM (inactive).

What about the GI50 (DU-145) of the same compound?
Its GI50 is > 100 µM (inactive).

And the GI50 (UO-31)?
Its GI50 is 46.8 µM (inactive).

What about the GI50 (HCT-116) of the same compound?
The GI50 was > 100 µM (inactive).

And the GI50 (HT-29)?
Its GI50 is > 100 µM (inactive).

What about the GI50 (Hs-578T) of the same compound?
Its GI50 is > 100 µM (inactive).

And the GI50 (UACC-257)?
The GI50 was > 100 µM (inactive).

What about the GI50 (NCI-H23) of the same compound?
The GI50 was 83.8 µM (inactive).

And the GI50 (MDA-N)?
The GI50 was > 100 µM (inactive).

What about the GI50 (MDA-MB-435) of the same compound?
The GI50 was > 100 µM (inactive).

And the GI50 (SF-539)?
Its GI50 is > 100 µM (inactive).

What about the GI50 (MDA-MB-231) of the same compound?
The GI50 was > 100 µM (inactive).

What about the GI50 (SNB-75) of the same compound?
The GI50 was 32.8 µM (inactive).

And the GI50 (LOX IMVI)?
Its GI50 is > 100 µM (inactive).

What about the GI50 (M14) of the same compound?
The GI50 was > 100 µM (inactive).

What about the GI50 (HL-60) of the same compound?
Its GI50 is > 100 µM (inactive).

And the GI50 (SK-MEL-2)?
Its GI50 is > 100 µM (inactive).

And the GI50 (OVCAR-3)?
The GI50 was 22.4 µM (inactive).

And the GI50 (MOLT-4)?
Its GI50 is > 100 µM (inactive).

What about the GI50 (OVCAR-5) of the same compound?
Its GI50 is > 100 µM (inactive).

What about the GI50 (MCF7) of the same compound?
Its GI50 is > 100 µM (inactive).

What about the GI50 (SNB-19) of the same compound?
Its GI50 is > 100 µM (inactive).

And the GI50 (HCT-15)?
The GI50 was > 100 µM.

What about the GI50 (Malme-3M) of the same compound?
The GI50 was > 100 µM (inactive).

And the GI50 (SW-620)?
Its GI50 is > 100 µM (inactive).

What about the GI50 (HOP-62) of the same compound?
Its GI50 is > 100 µM (inactive).

And the GI50 (PC-3)?
Its GI50 is > 100 µM (inactive).

And the GI50 (SF-268)?
The GI50 was > 100 µM (inactive).

And the GI50 (NCI-H226)?
The GI50 was 31 µM (inactive).

And the GI50 (EKVX)?
Its GI50 is 63.5 µM (inactive).

What about the GI50 (OVCAR-8) of the same compound?
The GI50 was > 100 µM (inactive).

What about the GI50 (SK-MEL-28) of the same compound?
The GI50 was > 100 µM (inactive).

And the GI50 (NCI/ADR-RES)?
Its GI50 is 76.9 µM (inactive).

And the GI50 (K562)?
The GI50 was > 100 µM (inactive).

What about the GI50 (ACHN) of the same compound?
Its GI50 is > 100 µM (inactive).

And the GI50 (SR)?
Its GI50 is > 100 µM (inactive).

And the GI50 (SF-295)?
The GI50 was 91.2 µM (inactive).
